Results reported in patent EP0303391B1, “Optical isomers of a spiroquinuclidine derivative” (State of Israel Represented by the Prime Minister's Office …, priority 1987, dated 1989).
Like-named read-outs stand apart in the source and are kept apart here.

Tests used:
muscarinic receptors [1] = type: binding, rat; details: for Ki: rat forebrain homogenates, mean ± spread (n), Ki = IC50 ÷ (1 + C/KD), read-out: Ki(^3H-QNB)
M₁ receptors = target: T1, M₁ receptors (Rattus norvegicus, UniProt P08482); experiment: biochemical; type: binding; details: for a:c: ratio Ki(3H-PZ):Ki(3H-CD)
T1 sequence (P08482 1-460): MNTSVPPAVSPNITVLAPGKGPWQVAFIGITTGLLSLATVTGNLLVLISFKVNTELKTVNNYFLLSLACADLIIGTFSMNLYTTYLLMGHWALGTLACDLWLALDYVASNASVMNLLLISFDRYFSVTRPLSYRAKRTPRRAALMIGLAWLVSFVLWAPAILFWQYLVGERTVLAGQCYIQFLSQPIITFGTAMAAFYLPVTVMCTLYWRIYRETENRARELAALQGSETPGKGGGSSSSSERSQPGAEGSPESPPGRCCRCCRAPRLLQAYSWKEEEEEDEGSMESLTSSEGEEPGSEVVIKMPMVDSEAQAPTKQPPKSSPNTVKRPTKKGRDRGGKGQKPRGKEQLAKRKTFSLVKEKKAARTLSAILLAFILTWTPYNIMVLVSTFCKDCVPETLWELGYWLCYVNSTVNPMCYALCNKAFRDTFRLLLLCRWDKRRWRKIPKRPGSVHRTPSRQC

muscarinic receptors [2] = experiment: Displacement of 3H-cis-dioxolane (3H-CD) from rat forebrain homogenates; type: binding
mice = experiment: LD50 in mice; type: in vivo; details: HCl salts
From the text: (§1) The LD₅₀ in mice of (+)-, (-) and [for comparison] There are no significant differences in the toxicity of the tested compounds.

[3] = tested on: AF64A and saline-injected rats; experiment: Passive avoidance (step-through) retention in AF64A and saline-injected rats; type: in vivo, Sprague-Dawley rats; details: for Retention latency after 72 hours: 0.2mg./kg. per os post-training, cut-off 600 secs., nine rats per group; for net latencies of AF64A-treated groups compared with the group treated with double distilled water: p < 0.005 for (-)-, p < 0.05 for (±)-cis
From the text: Ethylcholine aziridinium ion (hereinafter denoted AF64A) is a selective presynaptic cholinergic neurotoxin, which on intracerebroventricular injection in rats induces persistent cholinergic hypofunction that mimics the cortical and hippocampal cholinegic deficiency and the cognitive impairments reported in SDAT. Accordingly, the possibility of reversal of the AF64A-induced effects by (-)- and [for comparison] (±)-cis-2-methylspiro(1,3-oxathiolan-5,3′)quinuclidine in the passive avoidance task was studied. In this experiment, the results of which are reported in Table 4, we investigated the effect of these substances (0.2mg./kg/., per os) on the retention after 72 hours of an inhibitory learning (passive avoidance-step through) task in AF64A and saline-injected rats, using a post-training drug treatment paradigm. The surgery carried out on the test animals (Sprague-Dawley rats raised by Charles River) was similar to that described in our prior published European Patent Application No. 0205247. The behavioral studies were performed one month after surgery.
The behavioral testing procedure comprised two phases, 1 and 2. In a pretest training procedure each rat was individually placed in a small lighted front compartment of a two-compartment box. After a 60 secs. familiarization/adaptation period, the door separating the two compartments was opened and a clock activated. The rat's latency to enter the large dark compartment of the box (to step-through) was measured. Immediately following entry into the dark compartment, the rat was subjected to an inescapable scrambled foot shock applied to the grid floor (0.6mA for 3 secs.). Sixty secs. after the termination of the shock, at the end of the training procedure, the rat was removed from the dark compartment and double distilled water, (-)- and (±)-cis-2-methylspiro(1,3-oxathiolan-5,3′)quinuclidine were administered per os. Rats were then returned to their home cage. Retention of the passive avoidance task was measured […]. after training by again placing the rat in the lighted front compartment, and after a 60 secs. adaptation period, measuring the latency to enter the dark compartment. The test session ended when a rat entered the dark compartment or after 600 secs. had elapsed. […]

[4] = tested on: isolated guinea pig ileum; experiment: Isolated guinea pig ileum induced contraction; type: cell-based
LD50 in mice = type: in vivo; details: mouse, in vivo, HCl salts, read-out: LD₅₀
From the text: as §1

[5] = index of M1 versus M2 selectivity

For `O=C1CCCN1CC#CCN1CCCC1` [Oxotremorine], the Ki (muscarinic receptors [1]) was 1700 ± 300 nM, the Ki (M₁ receptors; Ki(^3H-PZ)) was 600 nM and the “a:c” value (M₁ receptors; [5]) was 625. For the same compound, the “a:b” value (M₁ receptors; ratio Ki(3H-PZ):Ki(3H-QNB), index of M1 versus M2 selectivity) was 0.35 and the Ki (muscarinic receptors [2]; footnote *: expressed in M x 10^-10) was 0.96 ± 0.42 nM.

In the case of `CC1OC2(CS1)CN1CCC2CC1` (single isomer, unassigned; (-)) [(-)-cis-isomer, (-)-cis-2-methylspiro(1,3-oxathiolan-5,3')quinuclidine], the “times more potent in ³H-QNB displacement than its racemate” value (muscarinic receptors [1]; relative to (±)-cis-isomer) is reported as 2.2, the LD₅₀ (mice; female mice) is reported as 40 mg/kg and the LD₅₀ (mice; male mice) is reported as 35 mg/kg. The “Retention latency after 72 hours” value ([3]; AF64A-treated rats) was 563.5 (±23.6) seconds, the “net latencies of AF64A-treated groups compared with the group treated with double distilled water” value ([3]; AF64A-treated rats) was “significantly longer” and the “Retention latency after 72 hours” value ([3]; saline-treated rats) was 474 (±61.3) seconds. The Ki (M₁ receptors; Ki(^3H-PZ)) was 1100 nM and the type of activity [4] was “agonist”.

With `CC1OC2(CS1)CN1CCC2CC1` (racemic) [(±)-cis-isomer, (±)-cis-2-methylspiro(1,3-oxathiolan-5,3')quinuclidine] the LD50 (LD50 in mice; female mice) was 40.8 mg/kg, the LD50 (LD50 in mice; male mice) was 45 mg/kg and the “Retention latency after 72 hours” value ([3]; AF64A-treated rats) was 407.9 (±72.1) seconds. For the same compound, the “net latencies of AF64A-treated groups compared with the group treated with double distilled water” value ([3]; AF64A-treated rats) was “significantly longer”, the “Retention latency after 72 hours” value ([3]; saline-treated rats) was 478.2 (±65.7) seconds and the “a:b” value (M₁ receptors) was 0.10. The Ki (M₁ receptors; Ki(^3H-PZ)) was 600 nM, the “a:c” value (M₁ receptors; [5]) was 1.4 and the type of activity [4] was “agonist”.

In the case of `C[N+](C)(C)CC#CCOC(=O)Nc1cccc(Cl)c1` [McN-A-343], the Ki (muscarinic receptors [1]) is reported as 14200 ± 1410 nM, the “a:b” value (M₁ receptors) is reported as 0.35 and the Ki (M₁ receptors; Ki(^3H-PZ)) is reported as 4900 nM. For the same compound, the “a:c” value (M₁ receptors; [5]) was 12.25 and the Ki (muscarinic receptors [2]; mean ± spread (n), Ki = IC50 ÷ (1 + C/KD)) was 400 ± 100 nM.

In the case of `CC(=O)OCC[N+](C)(C)C` [Acetylcholine], the EC50 ([4]; Cavia porcellus, induced contraction of isolated guinea pig ileum) is reported as 50 nM.

For `CC1OC2(CS1)CN1CCC2CC1` (racemic) [(±)-trans-isomer, (±)-trans-2-methylspiro(1,3-oxathiolan-5,3')quinuclidine], the “a:b” value (M₁ receptors) was 0.59, the “a:c” value (M₁ receptors; index of M1 versus M2 selectivity, listed as 3) was 8.1 and the Ki (M₁ receptors; read-out: Ki(^3H-PZ)) was 14600 ± 2900 nM. For the same compound, the type of activity [4] was “agonist”.

Compound `CC1OC2(CS1)CN1CCC2CC1` (single isomer, unassigned; (+)) [(+)-cis-isomer, (+)-cis-2-methylspiro(1,3-oxathiolan-5,3')quinuclidine] has an LD50 (LD50 in mice; female mice) of 45 mg/kg, an LD50 (LD50 in mice; male mice) of 39.1 mg/kg and a Ki (M₁ receptors; Ki(^3H-PZ)) of 9600 nM. For the same compound, the type of activity [4] was “inactive as agonist”.
